Reference: patent US20240409585A1, “MACROCYCLIC IMMUNOMODULATORS” (priority 2021, published 2024)
Bridge positions count the residues as written; N and C are the ends. Square brackets hold non-standard residues; d marks the D form. Peptide text beside a SMILES is read from it. * marks the point of attachment. ξ: configuration not given here. Gly(1-amidinopiperidin-4-yl) = N=C(N)N1CCC([C@H](N)C(=O)O)CC1; Tyr(3-NO2) = N[C@@H](Cc1ccc(O)c([N+](=O)[O-])c1)C(=O)O; Tyr(3,5-Br2) = N[C@@H](Cc1cc(Br)c(O)c(Br)c1)C(=O)O; Phe(4-COOH) = N[C@@H](Cc1ccc(C(=O)O)cc1)C(=O)O; Bip = N[C@@H](Cc1ccc(-c2ccccc2)cc1)C(=O)O; Phe(3-Me) = Cc1cccc(C[C@H](N)C(=O)O)c1; aIle = CC[C@@H](C)[C@H](N)C(=O)O; 3Pal = N[C@@H](Cc1cccnc1)C(=O)O; 4Pal = N[C@@H](Cc1ccncc1)C(=O)O; pS = N[C@@H](COP(=O)(O)O)C(=O)O; Cha = N[C@@H](CC1CCCCC1)C(=O)O; Cit = NC(=O)NCCC[C@H](N)C(=O)O; dCha = N[C@H](CC1CCCCC1)C(=O)O; NMeL = CN[C@@H](CC(C)C)C(=O)O; Thr(3ξ) = CC(O)[C@H](N)C(=O)O; Carboxymethyl = O=C(O)C*; NMeA = CN[C@@H](C)C(=O)O; Nle = CCCC[C@H](N)C(=O)O; Dab = NCC[C@H](N)C(=O)O; Dap = NC[C@H](N)C(=O)O; ξV = CC(C)C(N)C(=O)O

Each compound was assayed against T1, PE-labeled human PD-L1-Ig binding to Jurkat cell line over-expressing human PD-1 (Jurkat-PD-1) (Homo sapiens, UniProt Q15116) (assay: Jurkat-PD-1 Cell Binding High-Content Screening Assay (CBA): Method 1). Settings: Jurkat HPDL1 PD1 IC50 (uM) (Method 1), Jurkat-hPD-1 cells, PE-labeled PD-L1-Ig 20 nM final.
T1 construct: expressed in transfected cells; host or cells: Jurkat
T1 sequence (Q15116 25-288): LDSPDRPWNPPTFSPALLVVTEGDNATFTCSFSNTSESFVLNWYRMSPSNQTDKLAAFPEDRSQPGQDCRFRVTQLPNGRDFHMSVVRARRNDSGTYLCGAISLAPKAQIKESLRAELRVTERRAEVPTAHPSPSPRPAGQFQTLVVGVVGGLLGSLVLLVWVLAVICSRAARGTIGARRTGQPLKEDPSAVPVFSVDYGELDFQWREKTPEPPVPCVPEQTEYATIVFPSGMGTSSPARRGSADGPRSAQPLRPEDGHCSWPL

SMILES	IC50 [µM]
C=C1N[C@@H](Cc2ccccc2)C(=O)N(C)[C@@H](C)C(=O)N[C@H](CC(C)C)C(=O)N[C@@H](CC(N)=O)C(=O)N[C@@H](CC(C)C)C(=O)N[C@@H](Cc2ccccc2)C(=O)N[C@@H](CO)C(=O)N[C@H](C(=O)N[C@@H](C)C(N)=O)CSCC(=O)N[C@@H](Cc2ccc(OCC(=O)O)cc2)C(=O)N[C@@H](Cc2ccc(C(=O)O)cc2)C(=O)N[C@@H](CC(=O)O)C(=O)N[C@@H](Cc2cccc(C)c2)C(=O)N[C@@H](CC(C)C)C(=O)N[C@H]1Cc1ccc(-c2ccccc2)cc1 [Compound 1585]	0.73

Same assay, conditions: Jurkat-hPD-1 cells, PE-labeled PD-L1-Ig 20 nM final; read-out: Jurkat HPDL1 PD1 IC50 (uM) (Method 1)

SMILES	IC50 [µM]
CC(C)C[C@@H]1NC(=O)[C@H](CCCNC(=N)N)NC(=O)[C@@H](CC2CCCCC2)NC(=O)[C@H](C)N(C)C(=O)[C@H](CCCNC(=N)N)NC(=O)[C@H](Cc2ccc(-c3ccccc3)cc2)NC(=O)[C@H](C(C)C)NC(=O)[C@H](Cc2c[nH]c3ccccc23)NC(=O)[C@H](CC(=O)O)NC(=O)[C@H](Cc2ccc(O)cc2)NC(=O)[C@H](Cc2ccccc2)NC(=O)CSC[C@@H](C(=O)N[C@@H](C)C(N)=O)NC(=O)[C@H]([C@@H](C)O)NC(=O)[C@H](C(C)C)NC1=O [Compound 1076] ({CH2CO}-FYDWV[Bip]R[NMeA][dCha]RLVTCA-NH2; thioether N-14)	0.05
CC[C@@H](C)[C@@H]1NC(=O)[C@H](Cc2ccc(-c3ccccc3)cc2)NC(=O)[C@H](CC(C)C)NC(=O)[C@H](Cc2c[nH]c3ccccc23)NC(=O)[C@H](CC(=O)O)NC(=O)[C@H](Cc2ccc(C(=O)O)cc2)NC(=O)[C@H](Cc2ccc(OCC(=O)O)cc2)NC(=O)CSC[C@@H](C(=O)N[C@@H](CCCCN)C(N)=O)NC(=O)[C@H](CC(=O)O)NC(=O)C(C(C)C)NC(=O)[C@H](CC(C)C)NC(=O)[C@H](CC(N)=O)NC(=O)[C@@H](CC(C)C)NC(=O)[C@H](C)N(C)C1=O (stereo partly drawn) [Compound 2105] ({CH2CO}-Y(Carboxymethyl)[Phe(4-COOH)]DWL[Bip][aIle][NMeA][dL]NL[ξV]DCK-NH2; thioether N-14)	0.1
CC(C)C[C@@H]1NC(=O)[C@H](Cc2c[nH]c3ccccc23)NC(=O)[C@H](COP(=O)(O)O)NC(=O)[C@H](Cc2ccc(O)cc2)NC(=O)[C@H](Cc2ccccc2)NC(=O)CSC[C@@H](C(=O)N[C@@H](C)C(N)=O)NC(=O)[C@H](CO)NC(=O)[C@H](C(C)C)NC(=O)[C@H](CC(C)C)NC(=O)[C@H](CC(N)=O)NC(=O)[C@@H](C)NC(=O)[C@H](C)N(C)C(=O)[C@H](C(C)C)NC(=O)[C@H](Cc2ccc(-c3ccccc3)cc2)NC1=O [Compound 1821] ({CH2CO}-FY[pS]WL[Bip]V[NMeA][dA]NLVSCA-NH2; thioether N-14)	0.49
CC(C)C[C@@H]1NC(=O)[C@H](CCCCN)NC(=O)[C@@H](CC(C)C)NC(=O)[C@H](C)N(C)C(=O)[C@H](CCCNC(=N)N)NC(=O)[C@H](Cc2ccc(-c3ccccc3)cc2)NC(=O)[C@H](C(C)C)NC(=O)[C@H](Cc2c[nH]c3ccccc23)NC(=O)[C@H](CC(=O)O)NC(=O)[C@H](Cc2ccc(O)cc2)NC(=O)[C@H](CC(N)=O)NC(=O)CSC[C@@H](C(=O)N[C@@H](C)C(N)=O)NC(=O)[C@H]([C@@H](C)O)NC(=O)[C@H](C(C)C)NC1=O [Compound 1280] ({CH2CO}-NYDWV[Bip]R[NMeA][dL]KLVTCA-NH2; thioether N-14)	0.08
CC(C)C[C@@H]1NC(=O)[C@H](CCCNC(=N)N)NC(=O)[C@@H]([C@H](C)O)NC(=O)[C@H](C)N(C)C(=O)[C@H](CCCNC(=N)N)NC(=O)[C@H](Cc2ccc(-c3ccccc3)cc2)NC(=O)[C@H](C(C)C)NC(=O)[C@H](Cc2c[nH]c3ccccc23)NC(=O)[C@H](CC(=O)O)NC(=O)[C@H](Cc2ccc(O)cc2)NC(=O)[C@H](Cc2ccccc2)NC(=O)CSC[C@@H](C(=O)N[C@@H](C)C(N)=O)NC(=O)[C@H]([C@@H](C)O)NC(=O)[C@H](C(C)C)NC1=O [Compound 1058] ({CH2CO}-FYDWV[Bip]R[NMeA][dT]RLVTCA-NH2; thioether N-14)	0.91
CC(C)C[C@@H]1NC(=O)[C@H](CCCNC(=N)N)NC(=O)[C@@H](CC(C)C)NC(=O)[C@H](C)N(C)C(=O)[C@H](CCCNC(=N)N)NC(=O)[C@H](Cc2ccc(-c3ccccc3)cc2)NC(=O)[C@H](C(C)C)NC(=O)[C@H](Cc2c[nH]c3ccccc23)NC(=O)[C@H](CC(=O)O)NC(=O)[C@H](Cc2cc(Br)c(O)c(Br)c2)NC(=O)[C@H](Cc2ccccc2)NC(=O)CSC[C@@H](C(=O)N[C@@H](C)C(N)=O)NC(=O)[C@H]([C@@H](C)O)NC(=O)[C@H](C(C)C)NC1=O [Compound 1092] ({CH2CO}-F[Tyr(3,5-Br2)]DWV[Bip]R[NMeA][dL]RLVTCA-NH2; thioether N-14)	0.42
CCCC[C@@H]1NC(=O)[C@H](CC(N)=O)NC(=O)[C@@H](C)NC(=O)[C@H](C)N(C)C(=O)[C@H](C(C)C)NC(=O)[C@H](Cc2ccc(-c3ccccc3)cc2)NC(=O)[C@H](CC(C)C)NC(=O)[C@H](Cc2c[nH]c3ccccc23)NC(=O)[C@H](CC(=O)O)NC(=O)[C@H](Cc2ccc(O)cc2)NC(=O)[C@H](Cc2ccccc2)NC(=O)CSC[C@@H](C(=O)N[C@@H](C)C(N)=O)NC(=O)[C@H]([C@@H](C)O)NC(=O)[C@H](CCCCN)NC1=O [Compound 1790] ({CH2CO}-FYDWL[Bip]V[NMeA][dA]N[Nle]KTCA-NH2; thioether N-14)	0.13
CC(C)C[C@@H]1NC(=O)[C@H](CCN)NC(=O)[C@@H](CC(C)C)NC(=O)[C@H](C)N(C)C(=O)[C@H](CCCNC(N)=O)NC(=O)[C@H](Cc2ccc(-c3ccccc3)cc2)NC(=O)[C@H](C(C)C)NC(=O)[C@H](Cc2c[nH]c3ccccc23)NC(=O)[C@H](CC(=O)O)NC(=O)[C@H](Cc2ccc(O)cc2)NC(=O)[C@H](C2CCN(C(=N)N)CC2)NC(=O)CSC[C@@H](C(=O)N[C@@H](C)C(N)=O)NC(=O)[C@H](C(C)O)NC(=O)[C@H](C(C)C)NC1=O (stereo partly drawn) [Compound 2038] ({CH2CO}-[Gly(1-amidinopiperidin-4-yl)]YDWV[Bip][Cit][NMeA][dL][Dab]LV[Thr(3ξ)]CA-NH2; thioether N-14)	0.07

Results, then the compound that gave them:

IC50 [µM]	SMILES
0.04	CC(C)C[C@@H]1NC(=O)[C@H](CCCNC(=N)N)NC(=O)[C@@H](CC(C)C)NC(=O)[C@H](C)N(C)C(=O)[C@H](CCC(=O)O)NC(=O)[C@H](Cc2ccc(-c3ccccc3)cc2)NC(=O)[C@H](C(C)C)NC(=O)[C@H](Cc2c[nH]c3ccccc23)NC(=O)[C@H](CC(=O)O)NC(=O)[C@H](Cc2ccc(O)cc2)NC(=O)[C@H](Cc2ccccc2)NC(=O)CSC[C@@H](C(=O)N[C@@H](C)C(N)=O)NC(=O)[C@H]([C@@H](C)O)NC(=O)[C@H](C(C)C)NC1=O [Compound 1141] ({CH2CO}-FYDWV[Bip]E[NMeA][dL]RLVTCA-NH2; thioether N-14)
0.02	CC(C)C[C@@H]1NC(=O)[C@H](CCN)NC(=O)[C@@H](CC(C)C)NC(=O)[C@H](C)N(C)C(=O)[C@H](CCCNC(=N)N)NC(=O)[C@H](Cc2ccc(-c3ccccc3)cc2)NC(=O)[C@H](C(C)C)NC(=O)[C@H](Cc2c[nH]c3ccccc23)NC(=O)[C@H](CC(=O)O)NC(=O)[C@H](Cc2ccc(O)c([N+](=O)[O-])c2)NC(=O)[C@H](Cc2cccnc2)NC(=O)CSC[C@@H](C(=O)N[C@@H](C)C(N)=O)NC(=O)[C@H]([C@@H](C)O)NC(=O)[C@H](C(C)C)NC1=O [Compound 1155] ({CH2CO}-[3Pal][Tyr(3-NO2)]DWV[Bip]R[NMeA][dL][Dab]LVTCA-NH2; thioether N-14)
0.03	CC(C)C[C@@H]1NC(=O)[C@H](CCN)NC(=O)[C@@H](CC(C)C)NC(=O)[C@H](CC(C)C)N(C)C(=O)[C@H](C(C)C)NC(=O)[C@H](Cc2ccc(-c3ccccc3)cc2)NC(=O)[C@H](C(C)C)NC(=O)[C@H](Cc2c[nH]c3ccccc23)NC(=O)[C@H](CC(=O)O)NC(=O)[C@H](Cc2ccc(O)cc2)NC(=O)[C@H](CC(N)=O)NC(=O)CSC[C@@H](C(=O)N[C@@H](C)C(N)=O)NC(=O)[C@H]([C@@H](C)O)NC(=O)[C@H](C(C)C)NC1=O [Compound 1371] ({CH2CO}-NYDWV[Bip]V[NMeL][dL][Dab]LVTCA-NH2; thioether N-14)
0.02	Cc1cccc(C[C@@H]2NC(=O)[C@H](CC(=O)O)NC(=O)[C@H](Cc3ccc(OCC(=O)O)cc3)NC(=O)[C@H](CN)NC(=O)CSC[C@@H](C(=O)N[C@@H](C)C(N)=O)NC(=O)[C@H](CO)NC(=O)[C@H](C(C)C)NC(=O)[C@H](CC(C)C)NC(=O)[C@H](CC(N)=O)NC(=O)[C@@H](C)NC(=O)[C@H](C)N(C)C(=O)[C@H](C(C)C)NC(=O)[C@H](Cc3ccc(-c4ccccc4)cc3)NC(=O)[C@H](CC(C)C)NC2=O)c1 [Compound 1582] ({CH2CO}-[Dap]Y(Carboxymethyl)D[Phe(3-Me)]L[Bip]V[NMeA][dA]NLVSCA-NH2; thioether N-14)
0.02	CC(C)C[C@@H]1NC(=O)[C@H](Cc2c[nH]c3ccccc23)NC(=O)[C@H](CC(=O)O)NC(=O)[C@H](Cc2ccc(OCC(=O)O)cc2)NC(=O)[C@H](Cc2ccccc2)NC(=O)CSC[C@@H](C(=O)N[C@@H](C)C(N)=O)NC(=O)[C@H](CO)NC(=O)[C@H](C(C)C)NC(=O)[C@H](CC(C)C)NC(=O)[C@H](CC(=O)O)NC(=O)[C@@H](CC(C)C)NC(=O)[C@H](C)N(C)C(=O)[C@H](C(C)C)NC(=O)[C@H](Cc2ccc(-c3ccccc3)cc2)NC1=O [Compound 2027] ({CH2CO}-FY(Carboxymethyl)DWL[Bip]V[NMeA][dL]DLVSCA-NH2; thioether N-14)
0.04	CC(C)C[C@@H]1NC(=O)[C@H](Cc2c[nH]c3ccccc23)NC(=O)[C@H](CC(=O)O)NC(=O)[C@H](Cc2ccncc2)NC(=O)[C@H](Cc2ccc(OCC(=O)O)cc2)NC(=O)CSC[C@@H](C(=O)N[C@@H](CCN)C(N)=O)NC(=O)[C@H](CO)NC(=O)[C@H](C(C)C)NC(=O)[C@H](CC2CCCCC2)NC(=O)[C@H](CCN)NC(=O)[C@@H](CC(C)C)NC(=O)[C@H](C)N(C)C(=O)[C@H](Cc2ccc(O)cc2)NC(=O)[C@H](Cc2ccc(-c3ccccc3)cc2)NC1=O [Compound 1908] ({CH2CO}-Y(Carboxymethyl)[4Pal]DWL[Bip]Y[NMeA][dL][Dab][Cha]VSC[Dab]-NH2; thioether N-14)
